From ChEMBL document CHEMBL5325405, “Rationally designed donepezil-based hydroxamates modulate Sig-1R and HDAC isoforms to exert anti-glioblastoma effects” (Eur J Med Chem, 2023)
Calls of active or inactive are those of the source. The rule behind the calls is not given here.

Tests used:
U-87 MG [1] = assay: cells; type: functional, cell-based, U-87MG ATCC; settings: Homo sapiens
[2] = target: T1, Protein deacetylase HDAC6 (Homo sapiens, UniProt Q9UBN7); assay: Inhibition of human HDAC6
T1 sequence (Q9UBN7 whole entry): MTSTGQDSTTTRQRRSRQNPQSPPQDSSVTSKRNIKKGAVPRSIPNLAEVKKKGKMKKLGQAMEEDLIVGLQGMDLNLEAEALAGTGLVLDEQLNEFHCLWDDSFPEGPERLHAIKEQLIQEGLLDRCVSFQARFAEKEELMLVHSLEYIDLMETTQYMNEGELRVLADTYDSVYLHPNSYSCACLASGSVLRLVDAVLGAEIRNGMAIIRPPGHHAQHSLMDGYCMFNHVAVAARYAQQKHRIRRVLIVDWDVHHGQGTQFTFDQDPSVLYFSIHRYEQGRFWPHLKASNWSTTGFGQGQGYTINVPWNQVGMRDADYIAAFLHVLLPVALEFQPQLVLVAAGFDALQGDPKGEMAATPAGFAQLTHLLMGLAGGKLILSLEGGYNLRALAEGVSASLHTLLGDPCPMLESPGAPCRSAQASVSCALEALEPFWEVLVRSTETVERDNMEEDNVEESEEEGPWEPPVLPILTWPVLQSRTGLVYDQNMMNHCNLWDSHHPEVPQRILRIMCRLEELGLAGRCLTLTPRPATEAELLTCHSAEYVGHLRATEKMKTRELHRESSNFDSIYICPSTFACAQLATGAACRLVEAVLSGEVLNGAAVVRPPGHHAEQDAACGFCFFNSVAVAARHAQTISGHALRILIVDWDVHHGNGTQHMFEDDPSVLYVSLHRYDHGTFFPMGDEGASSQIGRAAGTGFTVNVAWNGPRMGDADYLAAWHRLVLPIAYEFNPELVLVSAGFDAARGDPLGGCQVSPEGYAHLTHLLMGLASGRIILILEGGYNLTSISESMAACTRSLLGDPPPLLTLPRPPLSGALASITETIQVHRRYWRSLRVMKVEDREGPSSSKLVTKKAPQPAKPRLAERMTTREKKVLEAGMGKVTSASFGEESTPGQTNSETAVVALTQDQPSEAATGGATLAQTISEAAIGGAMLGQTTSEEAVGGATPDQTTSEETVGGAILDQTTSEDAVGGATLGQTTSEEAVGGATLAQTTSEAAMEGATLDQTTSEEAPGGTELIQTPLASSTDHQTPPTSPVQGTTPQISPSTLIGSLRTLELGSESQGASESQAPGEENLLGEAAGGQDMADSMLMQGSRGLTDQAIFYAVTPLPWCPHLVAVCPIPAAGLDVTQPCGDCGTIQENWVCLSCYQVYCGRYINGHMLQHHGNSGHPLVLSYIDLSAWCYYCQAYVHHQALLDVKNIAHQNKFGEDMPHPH

Histone deacetylase 1 = Histone deacetylase 1 (Homo sapiens, UniProt Q13547); assay: Inhibition of human HDAC1
Sequence of Histone deacetylase 1 (Q13547 whole entry): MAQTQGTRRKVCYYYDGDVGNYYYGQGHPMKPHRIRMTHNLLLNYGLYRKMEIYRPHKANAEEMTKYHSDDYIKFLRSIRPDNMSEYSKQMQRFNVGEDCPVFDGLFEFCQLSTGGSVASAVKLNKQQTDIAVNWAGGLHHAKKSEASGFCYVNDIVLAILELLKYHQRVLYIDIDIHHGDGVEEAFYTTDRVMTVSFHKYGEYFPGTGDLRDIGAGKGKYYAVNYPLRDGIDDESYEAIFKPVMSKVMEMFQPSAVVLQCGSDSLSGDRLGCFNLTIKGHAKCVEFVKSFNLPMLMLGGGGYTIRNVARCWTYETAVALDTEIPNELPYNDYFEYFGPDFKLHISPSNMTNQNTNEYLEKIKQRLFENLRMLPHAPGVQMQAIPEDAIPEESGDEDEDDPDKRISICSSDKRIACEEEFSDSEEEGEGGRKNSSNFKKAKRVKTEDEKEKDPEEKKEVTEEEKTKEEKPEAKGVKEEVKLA

Histone deacetylase 8 = target: T2, Histone deacetylase 8 (Homo sapiens, UniProt Q9BY41); assay: Inhibition of human HDAC8
T2 sequence (Q9BY41 whole entry): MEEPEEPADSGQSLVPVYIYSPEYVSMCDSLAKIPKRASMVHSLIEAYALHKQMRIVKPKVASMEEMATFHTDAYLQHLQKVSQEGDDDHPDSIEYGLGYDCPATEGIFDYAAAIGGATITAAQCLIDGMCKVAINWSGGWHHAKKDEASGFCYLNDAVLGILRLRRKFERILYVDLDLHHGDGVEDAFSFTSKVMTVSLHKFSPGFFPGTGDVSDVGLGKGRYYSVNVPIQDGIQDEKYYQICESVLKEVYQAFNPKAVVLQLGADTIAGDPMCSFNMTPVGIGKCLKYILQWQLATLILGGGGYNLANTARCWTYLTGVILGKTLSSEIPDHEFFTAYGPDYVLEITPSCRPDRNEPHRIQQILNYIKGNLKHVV

Histone deacetylase 2 = Histone deacetylase 2 (Homo sapiens, UniProt Q92769); assay: Inhibition of human HDAC2
Sequence of Histone deacetylase 2 (Q92769 whole entry): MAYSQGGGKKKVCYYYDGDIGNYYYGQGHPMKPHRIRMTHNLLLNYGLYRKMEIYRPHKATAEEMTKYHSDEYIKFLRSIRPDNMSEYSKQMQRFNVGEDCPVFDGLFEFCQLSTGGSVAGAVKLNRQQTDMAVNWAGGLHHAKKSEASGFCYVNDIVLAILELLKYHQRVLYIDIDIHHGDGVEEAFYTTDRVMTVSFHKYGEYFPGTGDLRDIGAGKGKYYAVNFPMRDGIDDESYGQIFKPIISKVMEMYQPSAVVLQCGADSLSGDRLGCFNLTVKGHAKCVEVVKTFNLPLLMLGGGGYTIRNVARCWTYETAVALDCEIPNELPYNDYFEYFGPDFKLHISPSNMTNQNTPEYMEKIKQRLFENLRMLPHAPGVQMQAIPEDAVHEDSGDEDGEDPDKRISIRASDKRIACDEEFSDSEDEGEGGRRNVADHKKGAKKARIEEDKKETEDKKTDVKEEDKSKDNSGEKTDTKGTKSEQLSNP

A 172 [3] = assay: Upregulation of acetylated H3 k9/k14 expression in human A-172 cells at 1 to 10 uM measured after 8 to 24 hrs by Western blotting analysis; type: functional, cell-based; settings: dose 1-10 µM, time 8-24 hrs
A 172 [4] = assay: Upregulation of acetylated tubulin expression in human A-172 cells at 1 to 10 uM measured after 8 to 24 hrs by Western blotting analysis; type: functional, cell-based; settings: dose 1-10 µM, time 8-24 hrs
GBM [5] = assay: Inhibition of colony formation in Temozolomide-resistant patient derived pt 5 GBM cells at 10 uM measured after 3 days by crystal violet staining based analysis; type: functional, cell-based; settings: Homo sapiens, time 3.0 day
A 172 [6] = assay: Downregulation of Spl expression in human A-172 cells at 1 to 10 uM measured after 16 hrs by Western blotting analysis; type: functional, cell-based; settings: dose 1-10 µM
A 172 [7] = assay: Downregulation of PCNA expression in human A-172 cells at 1 to 10 uM measured after 16 hrs by Western blotting analysis; type: functional, cell-based; settings: dose 1-10 µM
Glioblastoma stem cell [8] = assay: Antiproliferative activity against Temozolomide-resistant patient derived pt 5 Glioblastoma stem cell sphere assessed as reduction in cell viability at 30 uM measure after 3 days by MTT assay; type: functional, cell-based; settings: Homo sapiens, time 3.0 day
Glioblastoma stem cell [9] = assay: Antiproliferative activity against Temozolomide-resistant patient derived pt 3 Glioblastoma stem cell sphere assessed as reduction in cell viability at 30 uM measure after 3 days by MTT assay; type: functional, cell-based; settings: Homo sapiens, time 3.0 day
U-87 MG [10] = assay: Cytotoxicity against human U-87 MG cells assessed as reduction in cell growth at 10 uM measured after 3 days by MTT assay; type: functional, U-87MG ATCC; design: scale not given: the % may be the effect or the level left; settings: time 3 day
A 172 [11] = assay: Induction of cell cycle arrest in human A-172 cells assessed as decrease in accumulation of cells at G0/G1 phase at 10 uM measured after 24 hrs by propidium iodide staining based flow cytometry analysis; type: functional
A 172 [12] = assay: Induction of cell cycle arrest in human A-172 cells assessed as decrease in accumulation of cells at S phase at 10 uM measured after 24 hrs by propidium iodide staining based flow cytometry analysis; type: functional
Glioblastoma stem cell [13] = assay: Antiproliferative activity against Temozolomide-resistant patient derived pt 3 Glioblastoma stem cell sphere assessed as reduction in cell viability at 10 uM measure after 3 days by MTT assay; type: functional, cell-based; settings: Homo sapiens, time 3.0 day
A 172 [14] = assay: […] caspase-3 expression in human A-172 cells at 1 to 10 uM measured after 16 hrs by Western blotting analysis; type: functional, cell-based; settings: dose 1-10 µM
U-87 MG [15] = assay: Antitumor activity against Temozolomide-resistant human U-87 MG cells xenografted in orthotopic BALB/c mouse assessed as prolongation of animal survival at 10 mg/kg, ip qod; type: functional, organism-based; settings: U-87MG ATCC
A 172 [16] = assay: Induction of cell cycle arrest in human A-172 cells assessed as increase in accumulation of cells at G2/M phase at 10 uM measured after 24 hrs by propidium iodide staining based flow cytometry analysis; type: functional
A 172 [17] = assay: Upregulation of acetylated Sig-1R expression in human A-172 cells by immunoblotting analysis; type: functional, cell-based
GBM [18] = assay: Antitumor activity against Temozolomide-resistant patient derived GBM cells assessed as reduction in cell growth measured after 3 uM measured after 3 days by MTT assay; type: functional, cell-based; settings: Homo sapiens, time 3.0 day
A 172 [19] = assay: Induction of cell cycle arrest in human A-172 cells assessed as accumulation of cells at subG1 phase at 10 uM measured after 48 hrs by propidium iodide staining based flow cytometry analysis; type: functional
GBM [20] = assay: Inhibition of colony formation in Temozolomide-resistant patient derived pt 3 GBM cells at 10 uM measured after 3 days by crystal violet staining based analysis; type: functional, cell-based; settings: Homo sapiens, time 3.0 day
Astrocyte = assay: Cytotoxicity against primary astrocyte cells (unknown origin) assessed as reduction in cell growth at 3 uM measured after 3 days by MTT assay; type: toxicity, cell-based; settings: 72 h, time 3 day
Glioblastoma stem cell [21] = assay: Antiproliferative activity against Temozolomide-resistant patient derived pt 5 Glioblastoma stem cell sphere assessed as reduction in cell viability at 10 uM measure after 3 days by MTT assay; type: functional, cell-based; settings: Homo sapiens, time 3.0 day
GBM [22] = assay: Inhibition of colony formation in Temozolomide-resistant patient derived pt 5 GBM cells at 3 to 30 uM measured after 3 days by crystal violet staining based analysis; type: functional, cell-based; settings: Homo sapiens, dose 3-30 µM, time 3.0 day
GBM [23] = assay: Inhibition of colony formation in Temozolomide-resistant patient derived pt 3 GBM cells at 3 to 30 uM measured after 3 days by crystal violet staining based analysis; type: functional, cell-based; settings: Homo sapiens, dose 3-30 µM, time 3.0 day
U-87 MG [24] = assay: Cytotoxicity against human U-87 MG cells assessed as reduction in cell growth at 30 uM measured after 3 days by MTT assay; type: functional, U-87MG ATCC; design: scale not given: the % may be the effect or the level left; settings: time 3 day

| IC50 (U-87 MG [1]) [nM] | IC50 [2] [nM] | IC50 (Histone deacetylase 1) [nM] | IC50 (Histone deacetylase 8) [nM] | IC50 (Histone deacetylase 2) [nM] | SMILES | Activity (U-87 MG [10]) [%] | Activity (GBM [18]) | Activity (Astrocyte) | other results |
| --- | --- | --- | --- | --- | --- | --- | --- | --- | --- |
| 8010 | – | – | – | – | COc1cc2c(cc1OC)C(=O)C(CC1CCN(C(=O)CCCCCCC(=O)NO)CC1)C2 (stereo not given) | – | – | – | – |
| 46000 | – | – | – | – | COc1cc2c(cc1OC)C(=O)C(CC1CCN(Cc3ccc(C(=O)NO)cc3)CC1)C2 (stereo not given) | – | – | – | – |
| 5780 | 2.7 | 313 | 842 | 710 | COc1cc2c(cc1OC)C(=O)C(CC1CCN(Cc3ccc(NC(=O)CCCCCCC(=O)NO)cc3)CC1)C2 (stereo not given) | 90 | Active | Non-Toxic | Activity (A 172 [3]): Active; Activity (A 172 [4]): Active; inhibition (GBM [5]): Active; Activity (A 172 [6]): Active; Activity (A 172 [7]): Active; Activity (Glioblastoma stem cell [8]): Active; Activity (Glioblastoma stem cell [9]): Active; Activity (A 172 [11]): Active; Activity (A 172 [12]): Active; Activity (Glioblastoma stem cell [13]): Active; Activity (A 172 [14]): Active; Activity (U-87 MG [15]): Active; Activity (A 172 [16]): Active; Activity (A 172 [17]): Active; Activity (A 172 [19]): Active; inhibition (GBM [20]): Active; Activity (Glioblastoma stem cell [21]): Active |
| 47200 | – | – | – | – | COc1cc2c(cc1OC)C(=O)C(CC1CCN(Cc3ccccc3)CC1)C2 (stereo not given) [DONEPEZIL] | – | inactive | – | Activity (Glioblastoma stem cell [8]): Active; Activity (Glioblastoma stem cell [9]): Active; inhibition (GBM [22]): inactive; inhibition (GBM [23]): inactive; Activity (U-87 MG [24]): 50%; Activity (A 172 [17]): inactive |
| – | – | – | – | – | O=C(CCCCCCC(=O)Nc1ccccc1)NO [VORINOSTAT] | – | Active | Toxic | Activity (A 172 [17]): inactive |
| 17000 | – | – | – | – | COc1cc2c(cc1OC)C(=O)C(CC1CCN(S(=O)(=O)c3ccc(/C=C/C(=O)NO)cc3)CC1)C2 (stereo not given) | – | – | – | – |
| 42800 | – | – | – | – | COc1cc2c(cc1OC)C(=O)C(CC1CCN(C(=O)CCCCCCCC(=O)NO)CC1)C2 (stereo not given) | – | – | – | – |
| 29100 | – | – | – | – | COc1cc2c(cc1OC)C(=O)C(CC1CCN(C(=O)CCCCCCCCC(=O)NO)CC1)C2 (stereo not given) | – | – | – | – |
| 6170 | 49.6 | – | 2150 | – | COc1cc2c(cc1OC)C(=O)C(CC1CCN(Cc3ccc(NCc4ccc(C(=O)NO)cc4)cc3)CC1)C2 (stereo not given) | 90 | Active | Non-Toxic | inhibition (Histone deacetylase 1): inactive; inhibition (Histone deacetylase 2): inactive |
| 1760 | 239 | 2430 | 113 | 500 | COc1cc2c(cc1OC)C(=O)C(CC1CCN(Cc3ccc(/C=C/C(=O)NO)cc3)CC1)C2 (stereo not given) | 90 | Active | Toxic | – |
| 4910 | 51.5 | 611 | 1240 | 1410 | COc1cc2c(cc1OC)C(=O)C(CC1CCN(Cc3cccc(NC(=O)CCCCCCC(=O)NO)c3)CC1)C2 (stereo not given) | 90 | Active | Non-Toxic | Activity (A 172 [11]): Active; Activity (A 172 [12]): Active; Activity (A 172 [16]): Active; Activity (A 172 [19]): Active |
| 6380 | 110 | 1670 | 1720 | 3360 | COc1cc2c(cc1OC)C(=O)C(CC1CCN(S(=O)(=O)c3cccc(/C=C/C(=O)NO)c3)CC1)C2 (stereo not given) | – | – | – | – |
| 43200 | – | – | – | – | COc1cc2c(cc1OC)C(=O)C(CC1CCN(C(=O)CCCCCC(=O)NO)CC1)C2 (stereo not given) | – | – | – | – |
